In patent US8735414B2 (priority 2009, dated 2014):

Test system: bicistronic HCV replicon (replicon RNA, GenBank Accession No. AJ242654)
Test: HCV Replicon Assay
Format: cell-based
Settings: Hepatitis C virus, 72 h, read-out: Replicon IC50

| SMILES | IC50 |
| --- | --- |
| N#Cc1c(-c2ccc(S(=O)(=O)NC(CF)CF)cn2)n(CC2CC2)c2cc(C3CC3)ccc12 [compound 84, 6-[3-cyano-6-cyclopropyl-1-(cyclopropylmethyl)-1H-indol-2-yl]-N-(1,3-difluoropropan-2-yl)pyridine-3-sulfonamide] | < 500 nM |
| Cc1cc(NS(=O)(=O)C(C)(C)C)ncc1-c1c(C(=O)O)c2cc(F)c(OC(F)F)cc2n1[C@H](C)C1CC1 [compound 1086, 2-{6-[(tert-butylsulfonyl)amino]-4-methylpyridin-3-yl}-1-[(1R)-1-cyclopropylethyl]-6-(difluoromethoxy)-5-fluoro-1H-indole-3-carboxylic acid] | < 500 nM |
| CSc1cc2c(C#N)c(-c3ccc(S(=O)(=O)N[C@@H](C)C(F)(F)F)cn3)n(C3CCC3)c2cc1OC(F)F [compound 685, 6-[3-cyano-1-cyclobutyl-6-(difluoromethoxy)-5-(methylsulfanyl)-1H-indol-2-yl]-N-[(2S)-1,1,1-trifluoropropan-2-yl]pyridine-3-sulfonamide] | 500 to 2000 nM |
| CC(C)NS(=O)(=O)c1cnc(-c2c(C#N)c3ccc(CC(F)F)cc3n2CC2CC2)nc1 [compound 620, 2-[3-cyano-1-(cyclopropylmethyl)-6-(2,2-difluoroethyl)-1H-indol-2-yl]-N-(propan-2-yl)pyrimidine-5-sulfonamide] | < 500 nM |
| C[C@H](NS(=O)(=O)c1ccc(-c2c(C#N)c3cc(F)c(OC(F)F)cc3n2-c2ncccn2)nc1)C(F)(F)F [compound 682, 6-[3-cyano-6-(difluoromethoxy)-5-fluoro-1-(pyrimidin-2-yl)-1H-indol-2-yl]-N-[(2S)-1,1,1-trifluoropropan-2-yl]pyridine-3-sulfonamide] | < 500 nM |
| CCc1cc2c(cc1F)c(C(N)=O)c(-c1ccc(S(=O)(=O)N[C@@H](C)C(F)(F)F)cn1)n2-c1ccncn1 [compound 1041, 6-ethyl-5-fluoro-1-(pyrimidin-4-yl)-2-(5-{[(2S)-1,1,1-trifluoropropan-2-yl]sulfamoyl}pyridin-2-yl)-1H-indole-3-carboxamide] | < 500 nM |
| CC(C)NS(=O)(=O)c1ccc(-c2c(C#N)c3cc(Cl)ccc3n2C2CCC2)cn1 [compound 28, 5-(5-chloro-3-cyano-1-cyclobutyl-1H-indol-2-yl)-N-(propan-2-yl)pyridine-2-sulfonamide] | 2000 to 5000 nM |
| Cc1cc2c(cc1F)c(C(N)=O)c(-c1ncc(S(=O)(=O)N[C@@H](C)C(F)(F)F)cn1)n2C1CCCCC1 [compound 707, 1-cyclohexyl-5-fluoro-6-methyl-2-(5-{[(2S)-1,1,1-trifluoropropan-2-yl]sulfamoyl}pyrimidin-2-yl)-1H-indole-3-carboxamide] | < 500 nM |
| CCC(NS(=O)(=O)c1ccc(-c2c(C#N)c3cc(F)c(OC(F)F)cc3n2C2CCC2)nc1)C(F)(F)F (stereo not shown) [compound 790, 6-[3-cyano-1-cyclobutyl-6-(difluoromethoxy)-5-fluoro-1H-indol-2-yl]-N-(1,1,1-trifluorobutan-2-yl)pyridine-3-sulfonamide] | < 500 nM |
| C[C@H](NS(=O)(=O)c1ccc(-c2c(C#N)c3ccc(CC(F)F)cc3n2C2CCCC2)nc1)C1CC1 [compound 594, 6-[3-cyano-1-cyclopentyl-6-(2,2-difluoroethyl)-1H-indol-2-yl]-N-[(1S)-1-cyclopropylethyl]pyridine-3-sulfonamide] | < 500 nM |
| N#Cc1c(-c2ccc(S(=O)(=O)NC3(C(F)(F)F)CC3)cn2)n(C2CCC2)c2cc(O)c(F)cc12 [compound 813, 6-(3-cyano-1-cyclobutyl-5-fluoro-6-hydroxy-1H-indol-2-yl)-N-[1-(trifluoromethyl)cyclopropyl]pyridine-3-sulfonamide] | 500 to 2000 nM |
| C[C@H](NS(=O)(=O)c1ccc(-c2c(C#N)c3c(F)cc(OC(F)F)cc3n2CC2CC2)nc1)C(F)(F)F [compound 773, 6-[3-cyano-1-(cyclopropylmethyl)-6-(difluoromethoxy)-4-fluoro-1H-indol-2-yl]-N-[(2S)-1,1,1-trifluoropropan-2-yl]pyridine-3-sulfonamide] | 500 to 2000 nM |
| CC(C)NS(=O)(=O)c1cnc(-c2c(C#N)c3ccc(Cl)cc3n2C2CCCC2)nc1 [compound 189, 2-(6-chloro-3-cyano-1-cyclopentyl-1H-indol-2-yl)-N-(propan-2-yl)pyrimidine-5-sulfonamide] | < 500 nM |
| C[C@H](NS(=O)(=O)c1ccc(-c2c(C#N)c3cc(F)c(CCO)cc3n2-c2ncccn2)nc1)C(F)(F)F [compound 970, 6-[3-cyano-5-fluoro-6-(2-hydroxyethyl)-1-(pyrimidin-2-yl)-1H-indol-2-yl]-N-[(2S)-1,1,1-trifluoropropan-2-yl]pyridine-3-sulfonamide] | < 500 nM |
| Cc1ccc2c(c1)c(C#N)c(-c1ccc(S(=O)(=O)N[C@H](C)C(F)(F)F)cn1)n2C1CCCC1 [compound 486, 6-(3-cyano-1-cyclopentyl-5-methyl-1H-indol-2-yl)-N-[(2R)-1,1,1-trifluoropropan-2-yl]pyridine-3-sulfonamide] | < 500 nM |
| Cc1cc2c(cc1F)cc(-c1ccc(S(=O)(=O)N[C@@H](C)C(F)(F)F)cn1)n2-c1ccsc1 [compound 987, 6-[5-fluoro-6-methyl-1-(thiophen-3-yl)-1H-indol-2-yl]-N-[(2S)-1,1,1-trifluoropropan-2-yl]pyridine-3-sulfonamide] | < 500 nM |

| SMILES | IC50 |
| --- | --- |
| Cc1cc2c(cc1F)c(C#N)c(-c1cc(C)c(S(=O)(=O)N[C@@H](C)C(F)(F)F)cn1)n2-c1ccccn1 [compound 854, 6-[3-cyano-5-fluoro-6-methyl-1-(pyridin-2-yl)-1H-indol-2-yl]-4-methyl-N-[(2S)-1,1,1-trifluoropropan-2-yl]pyridine-3-sulfonamide] | < 500 nM |
| Cc1ccc2c(C#N)c(-c3ccc(S(=O)(=O)N[C@@H](C)C4CC4)cn3)n(C3CCCC3)c2c1 [compound 426, 6-(3-cyano-1-cyclopentyl-6-methyl-1H-indol-2-yl)-N-[(1S)-1-cyclopropylethyl]pyridine-3-sulfonamide] | < 500 nM |
| Cc1c(F)c(OC(F)F)cc2c1c(C#N)c(-c1ccc(S(=O)(=O)N[C@@H](C)C(F)(F)F)cn1)n2C1CCC1 [compound 810, 6-[3-cyano-1-cyclobutyl-6-(difluoromethoxy)-5-fluoro-4-methyl-1H-indol-2-yl]-N-[(2S)-1,1,1-trifluoropropan-2-yl]pyridine-3-sulfonamide] | < 500 nM |
| CCc1cc2c(cc1F)c(C(N)=O)c(-c1ccc(S(=O)(=O)N[C@@H](C)C(F)(F)F)cn1)n2-c1ccc(C)cn1 [compound 1039, 6-ethyl-5-fluoro-1-(5-methylpyridin-2-yl)-2-(5-{[(2S)-1,1,1-trifluoropropan-2-yl]sulfamoyl}pyridin-2-yl)-1H-indole-3-carboxamide] | 500 to 2000 nM |
| C[C@@H](NS(=O)(=O)c1ccc(-c2c(C#N)c3ccc(Cl)cc3n2C2CCCC2)nc1)C(F)(F)F [compound 223, 6-(6-chloro-3-cyano-1-cyclopentyl-1H-indol-2-yl)-N-[(2R)-1,1,1-trifluoropropan-2-yl]pyridine-3-sulfonamide] | < 500 nM |
| N#Cc1c(-c2ccc(S(=O)(=O)NC(CF)CF)cn2)n(CC2CC2)c2cc(CC(F)F)ccc12 [compound 616, 6-[3-cyano-1-(cyclopropylmethyl)-6-(2,2-difluoroethyl)-1H-indol-2-yl]-N-(1,3-difluoropropan-2-yl)pyridine-3-sulfonamide] | < 500 nM |
| CNC(=O)c1c(-c2ccc(S(=O)(=O)N[C@@H](C)C(F)(F)F)cn2)n(C2CCC2)c2cc(C)c(F)cc12 [compound 801, 1-cyclobutyl-5-fluoro-N,6-dimethyl-2-(5-{[(2S)-1,1,1-trifluoropropan-2-yl]sulfamoyl}pyridin-2-yl)-1H-indole-3-carboxamide] | < 500 nM |
| N#Cc1c(-c2ccc(S(=O)(=O)NC(CF)CF)cn2)n(-c2ncccn2)c2ccc(F)cc12 [compound 608, 6-[3-cyano-5-fluoro-1-(pyrimidin-2-yl)-1H-indol-2-yl]-N-(1,3-difluoropropan-2-yl)pyridine-3-sulfonamide] | < 500 nM |
| Cc1cc2c(cc1F)c(C#N)c(-c1ccc(S(=O)(=O)NC3(C(F)(F)F)CC3)cn1)n2C1CCCC1 [compound 644, 6-(3-cyano-1-cyclopentyl-5-fluoro-6-methyl-1H-indol-2-yl)-N-[1-(trifluoromethyl)cyclopropyl]pyridine-3-sulfonamide] | < 500 nM |
| C[C@H](NS(=O)(=O)c1ccc(-c2c(C#N)c3ccc(OC(F)(F)F)cc3n2C2CCC2)nc1)C1CC1 [compound 152, 6-[3-cyano-1-cyclobutyl-6-(trifluoromethoxy)-1H-indol-2-yl]-N-[(1S)-1-cyclopropylethyl]pyridine-3-sulfonamide] | < 500 nM |
| Cc1cc2c(cc1F)c(C#N)c(-c1ccc(S(=O)(=O)N[C@@H](C)C(F)(F)F)cn1)n2-c1ncccn1 [compound 634, 6-[3-cyano-5-fluoro-6-methyl-1-(pyrimidin-2-yl)-1H-indol-2-yl]-N-[(2S)-1,1,1-trifluoropropan-2-yl]pyridine-3-sulfonamide] | < 500 nM |
| C[C@H](NS(=O)(=O)c1ccc(-c2c(C(N)=O)c3cc(F)c(C4CC4)cc3n2C2CCCC2)nc1)C(F)(F)F [compound 838, 1-cyclopentyl-6-cyclopropyl-5-fluoro-2-(5-{[(2S)-1,1,1-trifluoropropan-2-yl]sulfamoyl}pyridin-2-yl)-1H-indole-3-carboxamide] | < 500 nM |
| Cc1nc(NS(=O)(=O)C(C)(C)C)ccc1-c1c(C(=O)O)c2cc(F)c(OC(F)F)cc2n1C(C)C [compound 1093, 2-{6-[(tert-butylsulfonyl)amino]-2-methylpyridin-3-yl}-6-(difluoromethoxy)-5-fluoro-1-(propan-2-yl)-1H-indole-3-carboxylic acid] | 500 to 2000 nM |
| CCc1cc2c(cc1F)c(C#N)c(-c1ccc(S(=O)(=O)N[C@@H](C)C(F)(F)F)cn1)n2-c1ccc(C)cc1 [compound 1004, 6-[3-cyano-6-ethyl-5-fluoro-1-(4-methylphenyl)-1H-indol-2-yl]-N-[(2S)-1,1,1-trifluoropropan-2-yl]pyridine-3-sulfonamide] | < 500 nM |
| CCc1cc2c(cc1F)c(C(=O)O)c(-c1cnc(NS(=O)(=O)C(C)(C)C)nc1)n2C1CCCCC1 [compound 1029, 2-{2-[(tert-butylsulfonyl)amino]pyrimidin-5-yl}-1-cyclohexyl-6-ethyl-5-fluoro-1H-indole-3-carboxylic acid] | 2000 to 5000 nM |
